Measurements taken from patent US4005075A, “Penicillins and their preparation” (Sumitomo Chemical Company, Limited, priority 1973, dated 1977).
≈ marks a conversion by molar mass, not a printed value.

Tests used:
[1] = tested on: Klebsiella pneumoniae 602; test: Antimicrobial activity, agar dilution method (minimal inhibitory concentration); type: cell-based
Source text: (§1) The antimicrobial activities of the compounds obtained in the above Examples determined by the standard test method (i.e. agar dilution method) as well as those of the following penicillins as disclosed in U.S. Pat. No. 3,433,784 are shown in Table 2: [drawing 59]

Proteus vulgaris HX19 = test: as above; type: cell-based
Source text: as §1

Escherichia coli NIHJ = test: as above; type: cell-based
Source text: as §1

[2] = tested on: Staphylococcus aureus 209P; test: as above; type: cell-based
Source text: as §1

[3] = tested on: Psudomonas aeruginosa 104; test: as above; type: cell-based
Source text: as §1

Proteus miravilis 2425 = test: as above; type: cell-based
Source text: as §1

Pseudomonas = settings: prior art penicillins; cited from earlier work

Compound	MIC [1]	MIC (Proteus vulgaris HX19)	MIC (Escherichia coli NIHJ)	MIC [2]	MIC [3]	MIC (Proteus miravilis 2425)	anti-Pseudomonas activity (Pseudomonas)
CCOc1cnc2ccccc2c1C(=O)NC(C(=O)N[C@@H]1C(=O)N2[C@@H]1SC(C)(C)[C@@H]2C(=O)O)c1ccccc1 (stereo partly shown) [B, reference compound]	25 mg/L (≈ 45.6 µM)	12.5 mg/L (≈ 22.8 µM)	50 mg/L (≈ 91.1 µM)	0.39 mg/L (≈ 0.711 µM)	100 mg/L (≈ 182 µM)	100 mg/L (≈ 182 µM)	
CC1(C)S[C@@H]2[C@H](NC(=O)C(C(=O)O)c3ccccc3)C(=O)N2[C@H]1C(=O)O (stereo partly shown) [Carbenicillin, reference compound]		0.78 mg/L (≈ 2.06 µM)			50 mg/L (≈ 132 µM)		not sufficiently strong
CC1(C)S[C@@H]2[C@H](NC(=O)C(NC(=O)c3ccccn3)c3ccccc3)C(=O)N2[C@H]1C(=O)O (stereo partly shown) [Compound, reference compound]		0.39 mg/L (≈ 0.858 µM)					
CC1(C)S[C@@H]2[C@H](NC(=O)[C@H](NC(=O)c3nnc4ccccc4c3O)c3ccccc3)C(=O)N2[C@H]1C(=O)O [Example 4, D-α-(4-hydroxycinnoline-3-carbonamido)benzylpenicillin]	12.5 mg/L (≈ 24 µM)	0.78 mg/L (≈ 1.5 µM)	12.5 mg/L (≈ 24 µM)	0.78 mg/L (≈ 1.5 µM)	12.5 mg/L (≈ 24 µM)	12.5 mg/L (≈ 24 µM)	
CC1(C)S[C@@H]2[C@H](NC(=O)[C@H](NC(=O)c3ncccc3O)c3ccccc3)C(=O)N2[C@H]1C(=O)O [Example 10]	25 mg/L (≈ 53.1 µM)	0.2 mg/L (≈ 0.425 µM)	6.25 mg/L (≈ 13.3 µM)	0.2 mg/L (≈ 0.425 µM)	6.25 mg/L (≈ 13.3 µM)	25 mg/L (≈ 53.1 µM)	
CC1(C)S[C@@H]2[C@H](NC(=O)[C@H](NC(=O)c3cccnc3O)c3ccccc3)C(=O)N2[C@H]1C(=O)O [Example 11]	25 mg/L (≈ 53.1 µM)	0.2 mg/L (≈ 0.425 µM)	12.5 mg/L (≈ 26.6 µM)	0.39 mg/L (≈ 0.829 µM)	6.25 mg/L (≈ 13.3 µM)	25 mg/L (≈ 53.1 µM)	
Cc1ccc(C(=O)N[C@@H](C(=O)N[C@@H]2C(=O)N3[C@@H]2SC(C)(C)[C@@H]3C(=O)O)c2ccccc2)c(O)n1 [Example 13]	25 mg/L (≈ 51.6 µM)	0.2 mg/L (≈ 0.413 µM)	12.5 mg/L (≈ 25.8 µM)	0.39 mg/L (≈ 0.805 µM)	12.5 mg/L (≈ 25.8 µM)	12.5 mg/L (≈ 25.8 µM)	
Cc1ccc2c(O)c(C(=O)N[C@@H](C(=O)N[C@@H]3C(=O)N4[C@@H]3SC(C)(C)[C@@H]4C(=O)O)c3ccccc3)cnc2n1 [Example 15]	1.56 mg/L (≈ 2.91 µM)	0.2 mg/L (≈ 0.373 µM)	3.13 mg/L (≈ 5.84 µM)	0.39 mg/L (≈ 0.728 µM)	3.13 mg/L (≈ 5.84 µM)	3.13 mg/L (≈ 5.84 µM)	
COc1cc2ncc(C(=O)N[C@@H](C(=O)N[C@@H]3C(=O)N4[C@@H]3SC(C)(C)[C@@H]4C(=O)O)c3ccccc3)c(O)c2cn1 [Example 16]	6.25 mg/L (≈ 11.3 µM)	0.2 mg/L (≈ 0.363 µM)			6.25 mg/L (≈ 11.3 µM)		
CC1(C)S[C@@H]2[C@H](NC(=O)[C@H](NC(=O)c3cnccc3O)c3ccc(O)cc3)C(=O)N2[C@H]1C(=O)O [Example 18]	200 mg/L (≈ 411 µM)	0.2 mg/L (≈ 0.411 µM)	12.5 mg/L (≈ 25.7 µM)	1.56 mg/L (≈ 3.21 µM)	3.13 mg/L (≈ 6.43 µM)	25 mg/L (≈ 51.4 µM)	
Cc1ccc2c(O)c(C(=O)N[C@@H](C(=O)N[C@@H]3C(=O)N4[C@@H]3SC(C)(C)[C@@H]4C(=O)O)c3ccc(O)cc3)cnc2n1 [Example 19]		0.39 mg/L (≈ 0.707 µM)	6.25 mg/L (≈ 11.3 µM)	1.56 mg/L (≈ 2.83 µM)		25 mg/L (≈ 45.3 µM)	
CC1(C)S[C@@H]2[C@H](NC(=O)[C@H](NC(=O)c3nc4ccccc4nc3O)c3ccccc3)C(=O)N2[C@H]1C(=O)O [Example 21]	12.5 mg/L (≈ 24 µM)	0.78 mg/L (≈ 1.5 µM)	6.25 mg/L (≈ 12 µM)	0.2 mg/L (≈ 0.383 µM)	1.56 mg/L (≈ 2.99 µM)	25 mg/L (≈ 47.9 µM)	
CC1(C)S[C@@H]2[C@H](NC(=O)[C@H](NC(=O)c3cnc4ccccc4c3O)c3ccc(O)cc3)C(=O)N2[C@H]1C(=O)O [Example 22]		0.2 mg/L (≈ 0.373 µM)	6.25 mg/L (≈ 11.6 µM)				
CC1(C)S[C@@H]2[C@H](NC(=O)[C@H](NC(=O)c3nnc4ccccc4c3O)c3ccc(O)cc3)C(=O)N2[C@H]1C(=O)O [Example 23]		0.78 mg/L (≈ 1.45 µM)					
CC1(C)S[C@@H]2[C@H](NC(=O)C(c3ccccc3)S(=O)(=O)O)C(=O)N2[C@H]1C(=O)O (stereo partly shown) [Sulfocillin]							not sufficiently strong

Second part, led by results:

MIC [1]	MIC (Proteus vulgaris HX19)	MIC (Escherichia coli NIHJ)	MIC [2]	MIC [3]	MIC (Proteus miravilis 2425)	Compound	anti-Pseudomonas activity (Pseudomonas)
6.25 mg/L	0.0125 mg/L	0.78 mg/L	1.56 mg/L	0.78 mg/L		CC1(C)S[C@@H]2[C@H](NC(=O)[C@H](NC(=O)c3cnc4cccnc4c3O)c3ccc(O)cc3)C(=O)N2[C@H]1C(=O)O (mixture of isomers) [Example 2, D-α-(4-hydroxy-1,5-naphthyridine-3-carbonamido)-p-hydroxyphenylacetamidopenicillanic acid]	
6.25 mg/L (≈ 12 µM)	0.1 mg/L (≈ 0.192 µM)	1.56 mg/L (≈ 2.99 µM)	0.78 mg/L (≈ 1.5 µM)	1.56 mg/L (≈ 2.99 µM)	3.13 mg/L (≈ 6 µM)	CC1(C)S[C@@H]2[C@H](NC(=O)[C@H](NC(=O)c3cnc4cccnc4c3O)c3ccccc3)C(=O)N2[C@H]1C(=O)O [Example 1, D-α-(4-hydroxy-1,5-naphthyridine-3-carbonamido)benzylpenicillin]	
25 mg/L (≈ 53.1 µM)	0.1 mg/L (≈ 0.213 µM)	25 mg/L (≈ 53.1 µM)	0.39 mg/L (≈ 0.829 µM)	3.13 mg/L (≈ 6.65 µM)	6.25 mg/L (≈ 13.3 µM)	CC1(C)S[C@@H]2[C@H](NC(=O)[C@H](NC(=O)c3cnccc3O)c3ccccc3)C(=O)N2[C@H]1C(=O)O [Example 3, D-α-(4-hydroxypyridine-3-carbonamido)benzylpenicillin]	
6.25 mg/L (≈ 13.3 µM)	0.05 mg/L (≈ 0.106 µM)	12.5 mg/L (≈ 26.5 µM)	0.39 mg/L (≈ 0.827 µM)	3.13 mg/L (≈ 6.64 µM)	6.25 mg/L (≈ 13.3 µM)	CC1(C)S[C@@H]2[C@H](NC(=O)[C@H](NC(=O)c3ccnnc3O)c3ccccc3)C(=O)N2[C@H]1C(=O)O [Example 5, D-α-(3hydroxypyridazine-4-carbonamido)benzylpenicillin]	
3.13 mg/L (≈ 5.98 µM)	< 0.05 mg/L	1.56 mg/L (≈ 2.98 µM)	0.39 mg/L (≈ 0.745 µM)	1.56 mg/L (≈ 2.98 µM)	3.13 mg/L (≈ 5.98 µM)	CC1(C)S[C@@H]2[C@H](NC(=O)[C@H](NC(=O)c3cnc4cccnc4c3O)C3=CCC=CC3)C(=O)N2[C@H]1C(=O)O [Example 6]	
25 mg/L (≈ 51.3 µM)	0.05 mg/L (≈ 0.103 µM)	12.5 mg/L (≈ 25.6 µM)	0.39 mg/L (≈ 0.8 µM)	3.13 mg/L (≈ 6.42 µM)	6.25 mg/L (≈ 12.8 µM)	CC1(C)S[C@@H]2[C@H](NC(=O)[C@H](NC(=O)c3cnc(O)nc3O)c3ccccc3)C(=O)N2[C@H]1C(=O)O [Example 7]	
100 mg/L (≈ 212 µM)	0.05 mg/L (≈ 0.106 µM)	25 mg/L (≈ 53 µM)	0.39 mg/L (≈ 0.827 µM)	3.13 mg/L (≈ 6.64 µM)	12.5 mg/L (≈ 26.5 µM)	CC1(C)S[C@@H]2[C@H](NC(=O)[C@H](NC(=O)c3cncnc3O)c3ccccc3)C(=O)N2[C@H]1C(=O)O [Example 8]	
	0.2 mg/L (≈ 0.384 µM)					CC1(C)S[C@@H]2[C@H](NC(=O)[C@H](NC(=O)c3cnc4ccccc4c3O)c3ccccc3)C(=O)N2[C@H]1C(=O)O [Example 9]	
6.25 mg/L (≈ 11.9 µM)	0.05 mg/L (≈ 0.0953 µM)	12.5 mg/L (≈ 23.8 µM)	0.78 mg/L (≈ 1.49 µM)	12.5 mg/L (≈ 23.8 µM)	6.25 mg/L (≈ 11.9 µM)	CC1(C)S[C@@H]2[C@H](NC(=O)[C@H](NC(=O)c3cnc4c(c3O)CCCC4)c3ccccc3)C(=O)N2[C@H]1C(=O)O [Example 12]	
3.13 mg/L (≈ 5.39 µM)	0.1 mg/L (≈ 0.172 µM)	1.56 mg/L (≈ 2.69 µM)	3.13 mg/L (≈ 5.39 µM)	3.13 mg/L (≈ 5.39 µM)	1.56 mg/L (≈ 2.69 µM)	CN(C)c1ccc2ncc(C(=O)N[C@@H](C(=O)N[C@@H]3C(=O)N4[C@@H]3SC(C)(C)[C@@H]4C(=O)O)c3ccc(O)cc3)c(O)c2n1 [Example 14]	
3.13 mg/L (≈ 5.42 µM)	0.1 mg/L (≈ 0.173 µM)	12.5 mg/L (≈ 21.6 µM)	0.78 mg/L (≈ 1.35 µM)	6.25 mg/L (≈ 10.8 µM)	3.13 mg/L (≈ 5.42 µM)	CC(=O)Nc1ccc2ncc(C(=O)N[C@@H](C(=O)N[C@@H]3C(=O)N4[C@@H]3SC(C)(C)[C@@H]4C(=O)O)c3ccccc3)c(O)c2c1 [Example 17]	
6.25 mg/L (≈ 12.2 µM)	0.1 mg/L (≈ 0.196 µM)	3.13 mg/L (≈ 6.13 µM)	0.78 mg/L (≈ 1.53 µM)	6.25 mg/L (≈ 12.2 µM)	3.13 mg/L (≈ 6.13 µM)	CC1(C)S[C@@H]2[C@H](NC(=O)[C@H](NC(=O)c3cnc4cn[nH]c4c3O)c3ccccc3)C(=O)N2[C@H]1C(=O)O [Example 20]	
	0.05 mg/L (≈ 0.0906 µM)	1.56 mg/L (≈ 2.83 µM)				Cc1ccc2ncc(C(=O)N[C@@H](C(=O)N[C@@H]3C(=O)N4[C@@H]3SC(C)(C)[C@@H]4C(=O)O)c3ccc(O)cc3)c(O)c2n1 [Example 26]	
	0.05 mg/L (≈ 0.0881 µM)	3.13 mg/L (≈ 5.51 µM)				COc1ccc2ncc(C(=O)N[C@@H](C(=O)N[C@@H]3C(=O)N4[C@@H]3SC(C)(C)[C@@H]4C(=O)O)c3ccc(O)cc3)c(O)c2n1 [Example 27]	
6.25 mg/L (≈ 11 µM)	0.05 mg/L (≈ 0.0882 µM)	1.56 mg/L (≈ 2.75 µM)	0.78 mg/L (≈ 1.38 µM)	3.13 mg/L (≈ 5.52 µM)	1.56 mg/L (≈ 2.75 µM)	CN(C)c1ccc2ncc(C(=O)N[C@@H](C(=O)N[C@@H]3C(=O)N4[C@@H]3SC(C)(C)[C@@H]4C(=O)O)C3=CCC=CC3)c(O)c2n1 [Example 28]	
